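Tested at 5 concentrations; 48 h exposure; 96-well plates; endpoints linearly interpolated, else capped at highest concentration. GI50 = concentration required for 50% inhibition of growth. TGI: concentration producing complete growth inhibition.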
How the values were obtained:
Experiment in all cases: DTP human tumour cell line panel, 48 h
[1] = system: NCI-H23 lung
[2] = system: MALME-3M melanoma
[3] = system: M19-MEL melanoma
[4] = system: RPMI-8226 leukemia
[5] = system: 786-0 renal
[6] = system: XF 498 CNS
[7] = system: MOLT-4 leukemia
[8] = system: SF-268 CNS
[9] = system: IGROV1 ovarian
[10] = system: OVCAR-8 ovarian
[11] = system: M14 melanoma
[12] = system: SK-OV-3 ovarian
[13] = system: HCC-2998 colon
[14] = system: HCT-15 colon
[15] = system: ACHN renal
[16] = system: OVCAR-3 ovarian
[17] = system: OVCAR-4 ovarian
[18] = system: CCRF-CEM leukemia
[19] = system: HCT-116 colon
[20] = system: SR leukemia
[21] = system: HL-60(TB) leukemia
[22] = system: A549 NSCLC
[23] = system: SW-620 colon
[24] = system: SK-MEL-5 melanoma
[25] = system: K-562 leukemia
[26] = system: HT29 colon
[27] = system: SNB-75 CNS
[28] = system: A498 renal
[29] = system: DMS 273 small cell lung
[30] = system: SK-MEL-28 melanoma
[31] = system: UO-31 renal
[32] = system: NCI-H522 lung
[33] = system: U251 CNS
[34] = system: KM20L2 colon
[35] = system: HOP-92 NSCLC
[36] = system: LOX IMVI melanoma
[37] = system: HOP-62 NSCLC
[38] = system: CAKI-1 renal
[39] = system: SNB-19 CNS
[40] = system: SNB-78 CNS
[41] = system: HOP-18 NSCLC
[42] = system: SF-539 CNS
[43] = system: TK-10 renal
[44] = system: UACC-62 melanoma
[45] = system: UACC-257 melanoma
[46] = system: NCI-H460 lung
[47] = system: SF-295 CNS
[48] = system: DMS 114 small cell lung
[49] = system: RXF-631 renal
[50] = system: EKVX NSCLC
[51] = system: RXF 393 renal
[52] = system: OVCAR-5 ovarian
[53] = system: SN12C renal
[54] = system: KM12 colon
[55] = system: COLO 205 colon
[56] = system: LXFL 529 NSCLC
[57] = system: NCI-H226 lung
[58] = system: DLD-1 colon
[59] = system: SK-MEL-2 melanoma

Structure (SMILES): NC(=S)N/N=C/C(O[C@@H](/C=N/NC(N)=S)CO)n1cnc2c(N)ncnc21 (some centres not stated)
- TGI [1]: > 100 µM
- TGI [2]: > 100 µM
- TGI [3]: > 100 µM
- TGI [4]: > 72.7 µM
- TGI [5]: > 100 µM
- TGI [6]: > 100 µM
- TGI [7]: > 100 µM
- TGI [8]: > 100 µM
- TGI [9]: > 100 µM
- TGI [10]: > 100 µM
- TGI [11]: > 100 µM
- TGI [12]: > 100 µM
- TGI [13]: > 100 µM
- TGI [14]: > 62 µM
- TGI [15]: > 100 µM
- TGI [16]: > 94.5 µM
- TGI [17]: > 100 µM
- TGI [18]: > 100 µM
- TGI [19]: > 61.9 µM
- TGI [20]: > 100 µM
- TGI [21]: > 100 µM
- TGI [22]: > 100 µM
- TGI [23]: > 53.7 µM
- TGI [24]: > 100 µM
- TGI [25]: > 100 µM
- TGI [26]: > 100 µM
- TGI [27]: > 100 µM
- TGI [28]: > 100 µM
- TGI [29]: 97.7 µM
- TGI [30]: > 100 µM
- TGI [31]: > 100 µM
- TGI [32]: > 72.4 µM
- TGI [33]: > 89.4 µM
- TGI [34]: > 100 µM
- TGI [35]: > 100 µM
- TGI [36]: > 100 µM
- TGI [37]: > 100 µM
- TGI [38]: > 100 µM
- TGI [39]: > 100 µM
- TGI [40]: > 100 µM
- TGI [41]: > 100 µM
- TGI [42]: > 100 µM
- TGI [43]: > 100 µM
- TGI [44]: > 100 µM
- TGI [45]: > 100 µM
- TGI [46]: > 100 µM
- TGI [47]: > 100 µM
- TGI [48]: > 55.9 µM
- TGI [49]: > 100 µM
- TGI [50]: > 100 µM
- TGI [51]: > 100 µM
- TGI [52]: > 100 µM
- TGI [53]: > 100 µM
- TGI [54]: > 100 µM
- TGI [55]: > 75.9 µM
- TGI [56]: > 100 µM
- TGI [57]: > 100 µM

Structure (SMILES): COC12OCCN(C)C1=CC(=O)C1N=NCC12 (configuration not stated)
- TGI [1]: > 100 µM
- TGI [3]: > 100 µM
- TGI [4]: > 100 µM
- TGI [5]: > 100 µM
- TGI [7]: > 100 µM
- TGI [9]: > 100 µM
- TGI [10]: > 100 µM
- TGI [11]: > 100 µM
- TGI [12]: > 100 µM
- TGI [13]: > 100 µM
- TGI [14]: > 100 µM
- TGI [16]: > 100 µM
- TGI [18]: > 100 µM
- TGI [19]: > 100 µM
- TGI [21]: > 100 µM
- TGI [22]: > 100 µM
- TGI [23]: > 100 µM
- TGI [24]: > 100 µM
- TGI [25]: > 100 µM
- TGI [26]: > 100 µM
- TGI [27]: > 100 µM
- TGI [28]: > 100 µM
- TGI [29]: > 100 µM
- TGI [30]: > 100 µM
- TGI [31]: > 100 µM
- TGI [32]: > 100 µM
- TGI [33]: > 100 µM
- TGI [35]: > 100 µM
- TGI [36]: > 100 µM
- TGI [38]: > 100 µM
- TGI [58]: > 100 µM
- TGI [40]: > 100 µM
- TGI [41]: > 100 µM
- TGI [42]: > 100 µM
- TGI [43]: > 100 µM
- TGI [44]: > 100 µM
- TGI [45]: > 100 µM
- TGI [46]: > 100 µM
- TGI [47]: > 100 µM
- TGI [48]: > 100 µM
- TGI [49]: > 100 µM
- TGI [50]: > 100 µM
- TGI [51]: > 100 µM
- TGI [53]: > 100 µM
- TGI [54]: > 100 µM
- TGI [55]: > 100 µM
- TGI [56]: > 100 µM
- TGI [57]: > 100 µM

Structure (SMILES): [pH]1p2[pH]p3p1p3[pH]2.c1cc[c]([Ge]([c]2ccccc2)[c]2ccccc2)cc1.c1cc[c]([Ge]([c]2ccccc2)[c]2ccccc2)cc1.c1cc[c]([Ge]([c]2ccccc2)[c]2ccccc2)cc1
- GI50 [1]: 15.3 µM
- TGI [1]: 31.2 µM
- GI50 [2]: 14.3 µM
- TGI [2]: 28.1 µM
- GI50 [3]: 14.4 µM
- TGI [3]: 28.6 µM
- GI50 [4]: 17.6 µM
- TGI [4]: 75.5 µM
- GI50 [5]: 17.1 µM
- TGI [5]: 32.3 µM
- GI50 [7]: 16.3 µM
- TGI [7]: > 100 µM
- GI50 [8]: 16.4 µM
- TGI [8]: 40.7 µM
- GI50 [9]: 30 µM
- TGI [9]: 62.5 µM
- GI50 [10]: 13.5 µM
- TGI [10]: 35.3 µM
- GI50 [11]: 13.6 µM
- TGI [11]: 27.3 µM
- GI50 [12]: 15.4 µM
- TGI [12]: 33.8 µM
- GI50 [13]: 17 µM
- TGI [13]: 31 µM
- GI50 [59]: 19.4 µM
- TGI [59]: 34.9 µM
- GI50 [15]: 16.9 µM
- TGI [15]: 36.2 µM
- GI50 [16]: 10.9 µM
- TGI [16]: 23.4 µM
- GI50 [17]: 25.2 µM
- TGI [17]: 56.7 µM
- GI50 [18]: 28 µM
- TGI [18]: > 100 µM
- GI50 [19]: 22.2 µM
- TGI [19]: 62.3 µM
- GI50 [20]: 12.8 µM
- TGI [20]: 80.2 µM
- GI50 [21]: 15.5 µM
- TGI [21]: 57.3 µM
- GI50 [22]: 25.4 µM
- TGI [22]: > 100 µM
- GI50 [23]: 16.3 µM
- TGI [23]: 29.9 µM
- GI50 [24]: 34.1 µM
- TGI [24]: 53.1 µM
- GI50 [25]: 16.4 µM
- TGI [25]: 43.5 µM
- GI50 [26]: 17.6 µM
- TGI [26]: 34 µM
- GI50 [27]: 10.1 µM
- TGI [27]: 32.4 µM
- GI50 [28]: 15.8 µM
- TGI [28]: 30 µM
- GI50 [29]: 15.3 µM
- TGI [29]: 32.5 µM
- GI50 [30]: 11.9 µM
- TGI [30]: 25 µM
- GI50 [31]: 16.3 µM
- TGI [31]: 29.8 µM
- GI50 [32]: 4.46 µM
- TGI [32]: 17.8 µM
- GI50 [33]: 7.54 µM
- TGI [33]: 19.7 µM
- GI50 [34]: 19.4 µM
- TGI [34]: 34 µM
- GI50 [35]: 12.8 µM
- TGI [35]: 29.8 µM
- GI50 [36]: 14.4 µM
- TGI [36]: 30.4 µM
- GI50 [37]: 28.7 µM
- TGI [37]: 66.1 µM
- GI50 [38]: 20.6 µM
- TGI [38]: 44.8 µM
- GI50 [58]: 14.8 µM
- TGI [58]: 29.5 µM
- GI50 [39]: 14.1 µM
- TGI [39]: 27.2 µM
- GI50 [41]: 14.3 µM
- TGI [41]: 29 µM
- GI50 [42]: 13.9 µM
- TGI [42]: 31.8 µM
- GI50 [43]: 18.5 µM
- TGI [43]: 33.5 µM
- GI50 [44]: 14.3 µM
- TGI [44]: 31 µM
- GI50 [45]: 15.2 µM
- TGI [45]: 31.7 µM
- GI50 [46]: 6.95 µM
- TGI [46]: 27.5 µM
- GI50 [47]: 21.2 µM
- TGI [47]: 42.9 µM
- GI50 [48]: 12.9 µM
- TGI [48]: 28.4 µM
- GI50 [49]: 12.9 µM
- TGI [49]: 27.5 µM
- GI50 [50]: 21.3 µM
- TGI [50]: 46.3 µM
- GI50 [51]: 64.9 µM
- TGI [51]: > 100 µM
- GI50 [52]: 18.2 µM
- TGI [52]: 34.1 µM
- GI50 [53]: 15.1 µM
- TGI [53]: 29.7 µM
- GI50 [54]: 15.1 µM
- TGI [54]: 33.7 µM
- GI50 [55]: 12.1 µM
- TGI [55]: 26.2 µM
- GI50 [56]: 11.6 µM
- TGI [56]: 24.3 µM
- GI50 [57]: 20.5 µM
- TGI [57]: 37.2 µM
